Columns and labels:
[1] = system: Type IV collagen; assay: Biosynthesis of Type IV collagen in human keratinocyte (Dot Blot); type: cell-based; conditions: 24 hours, control = 100
Method: (§1) Human keratinocyte was cultured with a concentration of 5×10^4 cells/well in 24-well plate mediums, and each medium was exchanged with a new one containing the compound separated in either example 1 or 2 at the densities of 0.1 ppm, 1 ppm or 10 ppm. After 24 hours of cultivation, the supernatants were harvested and the amount of Type IV collagen was quantified using Dot Blot method.

[2] = system: laminin 10/11; assay: Biosynthesis of laminin 10/11 in human keratinocyte (Dot Blot); type: cell-based; conditions: 24 hours, control group = 100
Method: as §1, with “Example” for “example”, “laminin 10/11” for “Type IV collagen”

[3] = system: MMP-9; assay: Inhibition of biosynthesis of MMP-9 in UVB-irradiated human keratinocyte (gelatin zymography); type: cell-based; conditions: 30 mJ/cm^2 UVB, 2 days, amount relative to control group = 100
Method: (§2) Human keratinocyte was cultured with a concentration of 10^4 cells/well in 24-well plate mediums, and 24 hours later they were irradiated with 30 mJ/cm^2 of UVB. Each medium was then exchanged with a new one containing the compound separated in either Example 1 or 2 at the densities of 0.1 ppm, 1 ppm or 10 ppm, respectively. After 2 days of cultivation, the supernatants were obtained and gelatin zymography was performed on the obtained supernatant to form MMP-2 and MMP-9. The amount of MMP-2 and MMP-9 thus formed was determined by densitometer for each medium, and was compared with the amount of MMP-2 and MMP-9 in the control group, which was set as 100 (The mediums not containing the compounds in Examples 1 and 2 were cultured as a control group).

[4] = system: epidermal-dermal junction; assay: Change in epidermal-dermal junction of UV-irradiated nude mouse (electron microscope); type: in vivo; conditions: applied while irradiating with UV light, compared to comparative formulation 1
Method: In order to verify the change to the epidermal-dermal junction irradiated with UV light by the composition of the present invention, external applications with the formulation of nutrition cream were prepared according to the ratios in Table 5.
Each of the formulations 1˜3 and the comparative formulation 1 were applied to the back of each nude mouse 5 times in a week for 2 weeks, and for 12 weeks thereafter each of the formulations 1˜3 and the comparative formulation 1 were applied 5 times per week while irradiating UV light 3 times. After biopsy, the change of the epidermal-dermal junction was determined by electron microscope.

[5] = system: MMP-2; assay: Inhibition of biosynthesis of MMP-2 in UVB-irradiated human keratinocyte (gelatin zymography); type: cell-based; conditions: 30 mJ/cm^2 UVB, 2 days, amount relative to control group = 100
Method: as §2

[6] = system: Type VII collagen; assay: Biosynthesis of Type VII collagen in human fibroblast (Dot Blot); type: cell-based; conditions: 24 hours, control group = 100
Method: as §1, with “fibroblast” for “keratinocyte”, “10^4” for “5×10^4”, “Example” for “either example”, “VII” for “IV”

SMILES	Biosynthesis of Type IV collagen (%) ([1]; 0.1 ppm)	Biosynthesis of Type IV collagen (%) ([1]; 1 ppm)	Biosynthesis of Type IV collagen (%) ([1]; 10 ppm)	Biosynthesis of laminin 10/11 (%) ([2]; 0.1 ppm)	Biosynthesis of laminin 10/11 (%) ([2]; 1 ppm)	Biosynthesis of laminin 10/11 (%) ([2]; 10 ppm)	MMP-9 (%) ([3]; 0.1 ppm)	MMP-9 (%) ([3]; 1 ppm)	MMP-9 (%) ([3]; 10 ppm)	change, separation or multiplexing of the epidermal-dermal junction [4]	MMP-2 (%) ([5]; 0.1 ppm)	MMP-2 (%) ([5]; 1 ppm)	MMP-2 (%) ([5]; 10 ppm)	Biosynthesis of Type VII collagen (%) ([6]; 0.1 ppm)	Biosynthesis of Type VII collagen (%) ([6]; 1 ppm)	Biosynthesis of Type VII collagen (%) ([6]; 10 ppm)
CC(C)=CCC[C@](C)(O[C@@H]1O[C@H](CO)[C@@H](O)[C@H](O)[C@H]1O)[C@H]1CC[C@]2(C)[C@@H]1[C@H](O)C[C@@H]1[C@@]3(C)CC[C@H](O)C(C)(C)[C@@H]3[C@@H](O)C[C@]12C [Example 1, 20-O-β-D-glucopyranosyl-20(S)-protopanaxatriol]	116	129	134	112	125	134	85	69	55	little change, separation or multiplexing	82	67	51	118	132	141
CC(C)=CCC[C@](C)(O[C@@H]1O[C@H](CO)[C@@H](O)[C@H](O)[C@H]1O)[C@H]1CC[C@]2(C)[C@@H]1[C@H](O)C[C@@H]1[C@@]3(C)CC[C@H](O)C(C)(C)[C@@H]3CC[C@]12C [Example 2, 20-O-β-D-glucopyranosyl-20(S)-protopanaxadiol]	119	128	139	115	125	137	78	62	49	little change, separation or multiplexing	79	61	48	120	135	146

Reference: patent US20080045467A1, “Composition Containing Ginsenoside F1 Or Compound K For Skin External Application” (Amorepacific Corporation, priority 2004, published 2008)
